Source: patent US6335322B1, “Therapeutic agents” (priority 1993, dated 2002)
Entries after “also recorded” stand apart in the source; their conditions may differ. Like-named read-outs stand apart in the source and are kept apart here.

Legend:
[1] = system: brain metastasis of a melanoma; test: Clonogenic agarose assay, melanoma brain metastasis biopsy; type: cell-based, human
Method: A biopsy was taken from the patient and placed immediately in a growth medium. […] Twenty-four hours before termination of the cultures (7 days) ^3H Thymidin was added. The activity of the test substance is thus quantified as cpm in a scintillation counter.

[2] = system: Raji human B-lymphoma cells; test: Raji leptomeningal carcinomatosis model in nude rats; type: in vivo; conditions: for mean day of death: 3 bolus injections on day 1, 2 and 4
Method: The model used is a tumour model in nude rats for leptomeningal growth of tumours. 1×10^6 cells of the Bcell tumour line Raji were injected into the spinal fluid through cistema magna (c.m.). of 4-5 weeks old nude rats. […] Anaesthetised animals were treated intracerebrally with a 40 μl injection into cistema magna with 3 or 4 bolus injections. Treatment was started 1 day after cell inoculation.

TLX/5 lymphoma = test: Anti-tumour activity against murine TLX/5 lymphoma; type: in vivo, CBA mice; conditions: FIG. 16; for Maximum increase in lifespan: i.p. days 3-7, 6.25-50 mg/kg/day, median of 5; for doses at which active (increase in life span): i.p. treatment for 5 days
Method: CBA mice weighing 20-25 g were inoculated subcutaneously inguinally with 1×10^5, TLX/5 tumour cells day 0. […] Doses were in the range 6.25-50 mg/kg/day. There were 5 mice per treatment per group and 10 tumour-bearing controls. Activity was assessed in terms of increase in life span (ILS) versus controls.

[3] = rat, in vivo
Method: (§2) Plasma concentrations of total radioactivity and of the metabolites were determined at different timepoints. Tissue concentrations of total radioactivity were determined from a range of tissues at different timepoints up to 120 hours following injection. Liver tissues were extracted and metabolite concentrations were determined up to 72 hours post injection.

[4] = system: A549 cells (human lung carcinoma); test: Cell inactivation, colony forming ability, A549; type: cell-based; conditions: FIG. 9; exposed for 24 hours
Method: (§1) Cell inactivation measured by means of loss of ability to form colonies was determined for several compounds. Cells used were of the established human cell lines of cancer cervix in situ origin, NHIK 3025, NHIK 3025/DDP, a cis-DDP-resistant variant of the same or A549 cells (human lung carcinoma). The cells were exposed to the test compound for 4 up till 24 hours. Test compounds were administered as micellar solution. Number of colonies were counted after about 12 days of incubation.
The cells were exposed for 24 hours.

NHIK 3025/DDP cells = test: Cell inactivation, colony forming ability, NHIK 3025/DDP; type: cell-based, human; conditions: FIG. 8; 4 h treatment
Method: as §1
The results here are obtained with 4 h treatment of NHIK 3025/DDP cells.

[5] = system: Molt 4 human lymphoma cells; test: Molt 4 leptomeningal carcinomatosis model in nude rats; type: in vivo; conditions: FIG. 12; treated 4x in cisterna magna
Method: The model used is a tumour model in nude rats for leptomeningal growth of tumours. 10^6 cells of the T-cell tumour line Molt 4 were injected into the spinal fluid through cistema magna (c.m.) of 4-5 weeks old nude rats. The animals develop neurological symptoms after 20-22 days if untreated. Anaesthetised animals were treated intracerebrally with a 40 μl injection into cistema magna with 4 bolus injections. Treatment was started 1 day after cell inoculation. Test compounds were Ara-C-5′-elaidyl ester (in micelles) and Ara-C. Ara-C was administered both at maximal tolerable dose (MTD) and at an equimotar dose to Ara-C-5′-elaidyl ester. Control animals (treated with NaCl) developed symptoms from the central nervous system after approximately 20 days.

[6] = system: Raji human B-lymphoma cells; test: Leukaemia model using Raji cells in SCID mice; type: in vivo
Method: SCID mice were injected intravenously with 1×10^6 Raji human B-lymphoma cells. […] Animals develop paralysis of the hind legs as a result of the tumour growth.

NFkappaB = test: Activation of the cellular transcription factor NFkappaB (β-galactosidase reporter, SW480 cells); type: cell-based, human; conditions: FIG. 15; exposure 4 h
Method: Human SW480 colon adenocarcinoma cells stably transfected with a CMV promotor/enhancer containing the gene for β-galactosidase were used. Activation of the transcription factor NFkappaB results in enhanced amount of the enzyme β-galactosidase in cytoplasma. The amount of β-galactosidase is quantified using optical density at 570 nm as parameter. The […] cells were incubated 2-3 days before exposure to the test compound for 4 h. The cells were washed and prepared, and optical density recorded for the different compounds.

[7] = system: PV/2b/35 hemangiosarcoma cells; test: Anti-tumour activity in SCID mice with hemangiosarcoma cells; type: in vivo; conditions: FIG. 17, 25 mg/kg/day
Source text: SCID mice were inoculated intraperitoneally with PV/2b/35 hemangiosarcoma cells. […] Controls were empty micelles, DMSO or PBS respectively. The animals were not treated during weekends. Survival was the endpoint of the study.

[8] = system: glioblastoma cell line U-118; test: Glioblastoma U-118 subcutaneous tumour in nude mice, intratumoural injection
Method: A glioblastoma cell line U-118 (Uppsala) tissue culture was injected subcutaneously in nude mice. A small part (2×2 mm) of growing tumour was transferred to new mice. […] Depending on the actual tumour size, the animals received the same relative amount of test substance. The control was given saline water. The growth rate was recorded as relative tumour volume (RTV).

[9] = Comparative pharmacokinetic, distribution, metabolism and excretion, i.v. to male rats; conditions: for Excretion of radioactivity: 14C-Ara-C-elaidate 5 mg/kg or 14C-Ara-C 2.4 mg/kg
Method: as §2

[10] = system: glioblastoma taken from a patient; test: Clonogenic agarose assay, glioblastoma biopsy; type: cell-based, human; conditions: FIGS. 1 and 2
Method: A biopsy was taken from the patient and placed immediately in a growth medium. Tumour tissue was desegregated mechanically, and living cells were selected the chemotherapeutic test substance was added, BCNU (in water) and Ara-C and Ara-C esters (in micelles), and the cells were cultivated in a soft agarose medium. Twenty-four hours before termination of the cultures (7 days) ^3H Thymidin was added. The activity of the test substance is thus quantified as cpm in a scintillation counter.
The results here are obtained with a glioblastoma taken from a patient. The same response pattern is found in 8 other glioblastoma biopsies. […] The results are given as % of the untreated control. A count of 50% (CD50) is taken as promising regarding use in therapy of this actual cancer line. What is worth nothing here is the 10^1.5 higher concentration of Ara-C needed to obtain CD50 as compared with elaidyl esters.

Nc1ccn([C@@H]2O[C@H](CO)[C@@H](O)[C@@H]2O)c(=O)n1 [Ara-C, 1-β-D-arabinofuranosylcytosine, reference compound]
difference (CD50 concentration) between Ara-C and the 3′- and 5′-elaidyl esters ([1]; FIG. 3): ~10 times | mean day of death ([2]; FIG. 10): 13 days | effect on survival ([2]; FIG. 11, 4 bolus doses day 1-4, Ara-C at MTD and at dose equimolar to Ara-C-elaidate): void of activity; also recorded: no effects | Maximum increase in lifespan (TLX/5 lymphoma): 32.7% | doses at which active (increase in life span) (TLX/5 lymphoma): only active at the dose 25 mg/kg | time up to which Ara-C is detectable in plasma ([3]; male): 24 h | liver concentration of Ara-C ([3]; male, 4 h): non-detectable levels after 4 hours | plasma levels of both Ara-C and Ara-U ([3]; male, 48 h): below the assay limit of detection at 48 h | proportion of the dose in whole-blood ([3]; male, iv, 0.08 h): 7.76%

CCCCCCCCCCCC=CCCCCC(=O)OCC1OC(n2ccc(N)nc2=O)C(O)C1O (stereo not drawn) [Ara-C-5′-petroseline ester]
inactivation (colony forming ability) compared to Ara-C [4]: enhanced effect

CCCCCCCCCCCCCCCCCC(=O)OCC1OC(n2ccc(N)nc2=O)C(O)C1O (stereo not drawn) [Ara-C-5′-stearyl ester]
inactivation (colony forming ability) compared to Ara-C [4]: highest inactivation

CCCCCCCC/C=C/CCCCCCCC(=O)OC[C@H]1O[C@@H](n2ccc(N)nc2=O)[C@@H](O)[C@@H]1O [Ara-C-elaidate, 5′-O-(Elaidoyl) 1-β-D-arabinofuranosylcytosine]
effect on colony forming ability compared to Ara-C (NHIK 3025/DDP cells): Enhanced effect | inactivation (colony forming ability) compared to Ara-C [4]: enhanced effect | increase of symptom free latency period as compared to Ara-C ([2]; FIG. 10, 3 bolus injections into cisterna magna on day 1, 2 and 4): 135% | mean day of death ([2]; FIG. 10): 30.5 days | survival of one rat (considered cured) ([2]; FIG. 10, 3 bolus injections, no tumours at necropsy day 76): more than 70 days | rats still alive and symptom-free at day 70 ([2]; FIG. 11, 4 daily bolus doses day 1-4 into cisterna magna): 3 out of 5 | onset of death compared to Ara-C or control [5]: delayed | fraction of the molar dose of Ara-C giving similar anti-cancer effects ([6]; FIG. 13): 1/20 | mean survival ([6]; FIG. 13, i.v. days 7, 9, 11, 13, 15, 20 mg/kg Ara-C-elaidate vs 200 mg/kg Ara-C): increased mean survival compared to control and Ara-C treated animals | mean survival time ([6]; FIG. 14, i.p. once daily days 7-11, versus every other day): greatly prolonged | β-galactosidase activity (optical density at 570 nm), NFkappaB activation (NFkappaB): substantial increase in β-galactosidase activity | Maximum increase in lifespan (TLX/5 lymphoma): 47.2% | doses at which active (increase in life span) (TLX/5 lymphoma): active at the doses 12.5 mg/kg and 25 mg/kg | survival ([7]; 5 days per week): greatly enhanced | survival compared to control ([7]; dissolved in DMSO): enhanced survival compared to control | survival compared to control ([7]; prepared in micelles): enhanced survival compared to control | CNS disturbance ([8]; FIG. 18, intratumoural injection): nor was there noted any sign of CNS disturbance | tumour growth (relative tumour volume) ([8]; FIG. 18, intratumoural injection of 10 mg/ml micellar solution): complete stop in tumour growth | toxic side effects ([8]; mouse, in vivo): no signs of toxic side effects | initial whole blood and plasma concentration compared to Ara-C [3]: higher | maximal concentrations compared to Ara-C [3]: lower | maximal concentrations in most tissues compared to Ara-C [3]: notably higher and occurred at later timepoints | plasma levels of both Ara-C and Ara-U [3]: can still be quantified at 72 h | tissue concentration of total radioactivity compared to 14C-Ara-C [3]: higher at all timepoints up to 120 hours | concentration of active drug in RES tissues compared to Ara-C ([3]; iv): significantly higher | elimination from tissues compared to 14C-Ara-C ([3]; iv): much slower | tissue distribution compared to Ara-C ([3]; iv): significantly altered | Excretion of radioactivity ([9]; 0-6 hours, i.v. male rats): 59.1 ± 3.7 % of dose | Excretion of radioactivity ([9]; 6-24 hours, i.v. male rats): 34.1 ± 2.5 % of dose | Excretion of radioactivity ([9]; 24-48 hours, i.v. male rats): 2.7 ± 0.8 % of dose | Excretion of radioactivity ([9]; 48-72 hours, i.v. male rats): 0.5 ± 0.1 % of dose | Excretion of radioactivity ([9]; 72-96 hours, i.v. male rats): 0.2 ± 0.1 % of dose | detection of metabolite Ara-U in liver ([9]; FIG. 19): no detection of Ara-U up to 24 hours | time a therapeutic significant Ara-C level is sustained in liver ([9]; FIG. 19, after dosing the ester): at least 72 h | time up to which Ara-C is detectable in plasma ([9]; FIG. 20): 72 h | metabolism of Ara-C to Ara-U ([9]; FIG. 20, plasma): less extensive, and starts later | rate of excretion of radioactivity in urine compared to 14C-Ara-C ([9]; Table 2): slower | proportion of the dose in whole-blood ([9]; at 0.08 hours after i.v. administration): 64.7% | excretion via the renal system compared to Ara-C ([9]; i.v. male rats): much slower | conversion to Ara-U compared to Ara-C ([9]; table 1 and FIG. 20): slower

O=NN(CCCl)C(=O)NCCCl [BCNU, N,N-cis(2-chloroethyl)N-nitroso-urea]
concentration needed to obtain CD50, times higher than with the Ara-C esters [10]: about 10 times | concentration needed to obtain CD50 compared to Ara-C alone [10]: reasonably comparable | higher concentration to give CD50 compared to the Ara-C esters ([1]; FIG. 4): more than 1×10^2
